In the supplement of paper PMC13380429:

Legend:
Conditions in all cases: 72 h
Vero E6 [1] = experiment: drug sensitivity score (DSS) for viability; higher = more toxic; extreme values may be limits of the assay
HepG2 [2] = experiment: as above
Caco-2 [3] = experiment: as above
Vero E6 [4] = experiment: relative viability EC50 (midpoint between 100% and the lowest measured viability); higher = less toxic
HepG2 [5] = experiment: as above
Caco-2 [6] = experiment: as above
Vero E6 [7] = experiment: cell viability relative to DMSO; higher = less toxic
HepG2 [8] = experiment: as above
Caco-2 [9] = experiment: as above
U2OS [10] = experiment: drug sensitivity score (DSS) for viability; higher = more toxic; extreme values may be limits of the assay
U2OS [11] = experiment: relative viability EC50 (midpoint between 100% and the lowest measured viability); higher = less toxic
U2OS [12] = experiment: cell viability relative to DMSO; higher = less toxic
Calu-3 [13] = experiment: drug sensitivity score (DSS) for viability; higher = more toxic; extreme values may be limits of the assay
Calu-3 [14] = experiment: relative viability EC50 (midpoint between 100% and the lowest measured viability); higher = less toxic
Calu-3 [15] = experiment: cell viability relative to DMSO; higher = less toxic

Row | Structure (SMILES) | drug sensitivity score (Vero E6 [1]) | drug sensitivity score (HepG2 [2]) | drug sensitivity score (Caco-2 [3]) | relative viability EC50 (Vero E6 [4]) [nM] | relative viability EC50 (HepG2 [5]) [nM] | relative viability EC50 (Caco-2 [6]) [nM] | cell viability (Vero E6 [7]; 1 nM) [%] | cell viability (Vero E6 [7]; 10 nM) [%] | cell viability (Vero E6 [7]; 100 nM) [%] | cell viability (Vero E6 [7]; 1000 nM) [%] | cell viability (Vero E6 [7]; 10000 nM) [%] | cell viability (HepG2 [8]; 1 nM) [%] | cell viability (HepG2 [8]; 10 nM) [%] | cell viability (HepG2 [8]; 100 nM) [%] | cell viability (HepG2 [8]; 1000 nM) [%] | cell viability (HepG2 [8]; 10000 nM) [%] | cell viability (Caco-2 [9]; 1 nM) [%] | cell viability (Caco-2 [9]; 10 nM) [%] | cell viability (Caco-2 [9]; 100 nM) [%] | cell viability (Caco-2 [9]; 1000 nM) [%] | cell viability (Caco-2 [9]; 10000 nM) [%] | drug sensitivity score (U2OS [10]) | relative viability EC50 (U2OS [11]) [nM] | cell viability (U2OS [12]; 1 nM) [%] | cell viability (U2OS [12]; 10 nM) [%] | cell viability (U2OS [12]; 100 nM) [%] | cell viability (U2OS [12]; 1000 nM) [%] | cell viability (U2OS [12]; 10000 nM) [%] | drug sensitivity score (Calu-3 [13]) | relative viability EC50 (Calu-3 [14]) [nM] | cell viability (Calu-3 [15]; 1 nM) [%] | cell viability (Calu-3 [15]; 10 nM) [%] | cell viability (Calu-3 [15]; 100 nM) [%] | cell viability (Calu-3 [15]; 1000 nM) [%] | cell viability (Calu-3 [15]; 10000 nM) [%]
1 | Cc1cccc(NC(=O)N[C@@H]2N=C(c3ccccc3)c3ccccc3N(C)C2=O)c1 | 0 | 0 | 0 | > 10000 | > 10000 | > 10000 | 111 | 102 | 109 | 101 | 93.6 | 111 | 109 | 110 | 106 | 92.5 | 105 | 106 | 100 | 110 | 97.2 | – | – | – | – | – | – | – | – | – | – | – | – | – | –
2 | O=C(CC1NCCCC1O)Cn1cnc2cc(Br)c(Cl)cc2c1=O (centres undefined) [halofuginone] | 24.5 | 27.9 | 15.7 | 84.2 | 43.9 | 183 | 99.7 | 100 | 42 | 11.4 | 0 | 102 | 88.9 | 24.1 | 2.9 | 0.6 | 95 | 107 | 81.7 | 28.6 | 25.1 | 13.4 | 678 | 98.9 | 101 | 98.1 | 32.2 | 1.9 | – | – | – | – | – | – | –
3 | Cl/C=C\C[N+]12CN3CN(CN(C3)C1)C2 [1-((Z)-3-chloroallyl)-1,3,5,7-tetraazaadamantan-1-ium] | 0 | 0 | 0 | > 10000 | > 10000 | > 10000 | 99.5 | 99 | 99.4 | 95.5 | 104 | 102 | 104 | 109 | 102 | 97.7 | 96.3 | 97.9 | 91.5 | 97.4 | 95.8 | 0 | > 10000 | 94.5 | 99.8 | 94.7 | 102 | 97.5 | – | – | – | – | – | – | –
4 | C[C@]12CC[C@H]3[C@@H](CCC4=CC(=O)CC[C@@]43C)[C@@H]1CC[C@@H]2O [TESTOSTERONE] | 0 | 0 | 8.9 | > 10000 | > 10000 | – | 97.6 | 103 | 98.7 | 108 | 87.9 | 81 | 91.7 | 104 | 104 | 95.1 | 104 | 97.6 | 70.8 | 72.6 | 79.9 | 0 | > 10000 | 102 | 92.4 | 98.7 | 100 | 94.6 | 0 | > 10000 | 95.2 | 99.1 | 102 | 95.3 | 92.3
5 | Cc1noc(C)c1-c1cc(O)cc([C@@H](O)c2ccccc2)c1 [OXF-BD-02] | 8 | 2.3 | 1.3 | 1480 | – | > 10000 | 102 | 103 | 94.6 | 76.9 | 17 | 107 | 104 | 98.6 | 101 | 54.4 | 100 | 92 | 99.3 | 92.5 | 80.3 | 3.9 | – | 97.2 | 94.2 | 99.7 | 86.9 | 59.3 | 1.8 | – | 98.9 | 95.2 | 99.8 | 96.8 | 70.8
6 | CCS(=O)(=O)Nc1ccc2c(c1)/C(=C(/Nc1ccc(CN3CCCCC3)cc1)c1ccccc1)C(=O)N2 [hesperadin] | 7.6 | 21.5 | 6.9 | 1520 | 119 | 512 | 92.7 | 101 | 82.7 | 73.2 | 16.9 | 99.1 | 94.4 | 58.8 | 8.8 | 5.1 | 95.1 | 91.8 | 90.7 | 68.7 | 48.4 | 16.9 | 329 | 102 | 94.3 | 80 | 22.1 | 0 | 6.8 | – | 107 | 95.7 | 84.8 | 70.3 | 62.1
7 | COc1ccc2[nH]c(C(=O)c3ccccc3)cc2c1 | 15.3 | 12.4 | 14.9 | 178 | 338 | 76.5 | 95.1 | 97.9 | 79.6 | 30.5 | 26.6 | 99.2 | 92.7 | 94.8 | 36.4 | 29.6 | 95 | 108 | 62.1 | 55.4 | 43.2 | 12.7 | 383 | 96.5 | 99.9 | 91.5 | 37.3 | 23.3 | 6.8 | – | 107 | 104 | 89.3 | 67.8 | 56.2
8 | CC[C@H]1CN2CC[C@H]1C[C@@H]2[C@@H](O)c1ccnc2ccc(OC)cc12 [hydroquinidine] | 0 | 0 | 0.1 | > 10000 | > 10000 | > 10000 | 97.4 | 102 | 103 | 107 | 91 | 91.7 | 95.1 | 101 | 89.1 | 93.1 | 105 | 106 | 94.6 | 94.7 | 87.4 | 0 | > 10000 | 99.9 | 99.4 | 97.3 | 97.8 | 98.6 | – | – | – | – | – | – | –
9 | CC(=O)NC[C@H]1CN(c2ccc(N3CCN(C(=O)CO)CC3)c(F)c2)C(=O)O1 [eperezolid] | 0 | 1.7 | 0 | > 10000 | > 10000 | > 10000 | 96.3 | 99.3 | 97.5 | 97.1 | 93.5 | 99.1 | 98.7 | 89.1 | 88.2 | 81.1 | 98.6 | 96.9 | 102 | 101 | 102 | 0 | > 10000 | 105 | 99.4 | 99.3 | 96.4 | 98.6 | – | – | – | – | – | – | –
10 | O=C(O)Cc1sc(-c2ccccc2)nc1-c1ccc(Cl)cc1 [fentiazac] | 0 | 0 | 0 | > 10000 | > 10000 | > 10000 | 99.3 | 101 | 96 | 99.7 | 92.2 | 95.3 | 103 | 97.6 | 103 | 94.9 | 100 | 98.9 | 92.6 | 97.6 | 95.3 | 0 | > 10000 | 99 | 98.7 | 95.2 | 93.9 | 92.4 | – | – | – | – | – | – | –
11 | O=C1[C@H](CC[C@H](O)c2ccc(F)cc2)[C@@H](c2ccc(O)cc2)N1c1ccc(F)cc1 [ezetimibe] | 0 | 0.2 | 0 | > 10000 | > 10000 | > 10000 | 99.6 | 106 | 100 | 100 | 107 | 103 | 96.6 | 100 | 90.8 | 88.8 | 97.6 | 98.1 | 93.3 | 95.9 | 88.9 | 0 | > 10000 | 95.9 | 101 | 95.8 | 104 | 91 | – | – | – | – | – | – | –
12 | Fc1ccc(Cn2c(NC3CCNCC3)nc3ccccc32)cc1 [tecastemizole] | 0 | 1.4 | 0.8 | > 10000 | > 10000 | – | 104 | 95.6 | 101 | 90 | 98.9 | 106 | 96.6 | 114 | 83.9 | 86.2 | 97.8 | 98.1 | 99 | 106 | 73.3 | 0 | > 10000 | 95 | 98 | 96.9 | 98.2 | 103 | 0 | > 10000 | 90.7 | 99.2 | 107 | 99.5 | 102
13 | Cc1c2oc3c(C)ccc(C(=O)N[C@@H]4C(=O)N[C@@H](C(C)C)C(=O)N5CCC[C@H]5C(=O)N(C)CC(=O)N(C)[C@@H](C(C)C)C(=O)O[C@@H]4C)c3nc-2c(C(=O)N[C@@H]2C(=O)N[C@@H](C(C)C)C(=O)N3CCC[C@H]3C(=O)N(C)CC(=O)N(C)[C@@H](C(C)C)C(=O)O[C@@H]2C)c(N)c1=O [actinomycin-d] | 20.1 | 36.5 | 15.2 | 166 | 8.5 | – | 101 | 102 | 79.5 | 6.9 | 7.9 | 113 | 41.4 | 15.9 | 3.1 | 5.1 | 95.6 | 77.5 | 58.6 | 61 | 65.9 | 29.2 | 29.6 | 105 | 65.9 | 31.5 | 0.7 | 1 | 25.9 | 15.2 | 102 | 71.4 | 31.7 | 24.5 | 36.7
14 | CC(C)C[C@H](NC(=O)[C@@H](COC(C)(C)C)NC(=O)[C@H](Cc1ccc(O)cc1)NC(=O)[C@H](CO)NC(=O)[C@H](Cc1c[nH]c2ccccc12)NC(=O)[C@H](Cc1cnc[nH]1)NC(=O)[C@@H]1CCC(=O)N1)C(=O)N[C@@H](CCCNC(=N)N)C(=O)N1CCC[C@H]1C(=O)NNC(N)=O [goserelin-acetate] | 0.1 | 0 | 0.6 | > 10000 | > 10000 | – | 91 | 104 | 104 | 95.3 | 88.7 | 108 | 92.9 | 100 | 92.1 | 98.7 | 96.9 | 106 | 96.6 | 73.5 | 94.1 | 0 | > 10000 | 107 | 101 | 99.2 | 98.7 | 96.7 | 0 | > 10000 | 99.4 | 97.7 | 96.1 | 95.4 | 104
15 | CON(C)C(=O)N1N=C(c2cc(F)ccc2F)S[C@@]1(CCCN)c1ccccc1 [filanesib] | 20.2 | 26.8 | 12.9 | 17.2 | 5.6 | – | 106 | 81.9 | 45.1 | 46.4 | 40.7 | 98 | 50 | 35.1 | 34.1 | 34.4 | 96.7 | 76.6 | 68.7 | 68.4 | 62.1 | 16.7 | 42.4 | 98.2 | 97.8 | 50.8 | 43.5 | 43.8 | 2 | > 10000 | 97 | 104 | 87.8 | 88.1 | 79.3
